For five molecules, activity results are on record in PMC10175918 (Communications Biology, 2023).

Read-outs that look alike come from different tables or passages of the source.

Test in all cases: cell-based
What all share (parameters): species or system HEK293A; AP-TGFα shedding assay, transfected GPCR plus chimeric Gα mixture, AP release as % of TPA response
Conditions in all cases: HEK293-A

For one experiment, the target named is T1, GPR132 (Homo sapiens, UniProt Q9UNW8).
T1 sequence (Q9UNW8 1-380): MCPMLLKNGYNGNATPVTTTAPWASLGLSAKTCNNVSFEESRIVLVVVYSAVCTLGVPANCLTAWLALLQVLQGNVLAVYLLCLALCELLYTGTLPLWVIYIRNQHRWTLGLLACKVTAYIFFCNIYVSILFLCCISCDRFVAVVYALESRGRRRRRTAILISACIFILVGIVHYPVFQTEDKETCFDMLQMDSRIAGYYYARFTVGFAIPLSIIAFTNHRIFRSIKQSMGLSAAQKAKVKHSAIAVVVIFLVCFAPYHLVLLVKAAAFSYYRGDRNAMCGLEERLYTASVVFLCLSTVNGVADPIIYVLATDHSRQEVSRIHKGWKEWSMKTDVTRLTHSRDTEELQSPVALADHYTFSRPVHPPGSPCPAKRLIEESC

The target of experiment [1] is T2, lysophosphatidic acid receptor 4 (Homo sapiens, UniProt Q99677).
T2 construct: gene LPAR4

Experiment [2] deals with T3, chemokine (C-X3-C motif) receptor 1 (Homo sapiens, UniProt P49238).
T3 construct: gene CX3CR1
T3 sequence (P49238 1-355): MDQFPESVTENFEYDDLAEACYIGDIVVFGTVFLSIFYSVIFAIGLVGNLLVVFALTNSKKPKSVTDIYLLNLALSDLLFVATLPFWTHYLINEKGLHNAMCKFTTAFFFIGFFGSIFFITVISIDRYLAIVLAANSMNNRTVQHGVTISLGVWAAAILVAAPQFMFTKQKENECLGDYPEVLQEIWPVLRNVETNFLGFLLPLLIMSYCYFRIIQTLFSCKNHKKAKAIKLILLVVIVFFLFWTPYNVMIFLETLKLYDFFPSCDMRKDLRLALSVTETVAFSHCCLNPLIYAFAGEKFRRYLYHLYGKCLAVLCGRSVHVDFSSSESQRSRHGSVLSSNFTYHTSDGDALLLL

Another experiment addresses T4, secretin receptor (Homo sapiens, UniProt P47872).
T4 construct: gene SCTR

In experiment [3] the target is T5, G protein-coupled receptor 17 short (Homo sapiens, UniProt Q13304).
T5 construct: gene GPR17; short isoform

Experiment [4] concerns the target T6, G protein-coupled receptor 183 (Epstein-Barr Virus Induced Gene 2) (Homo sapiens, UniProt P32249).
T6 construct: gene GPR183

Experiment [5] deals with T7, C-C motif chemokine receptor 7 (Homo sapiens, UniProt P32248).
T7 construct: gene CCR7
T7 sequence (P32248 1-378): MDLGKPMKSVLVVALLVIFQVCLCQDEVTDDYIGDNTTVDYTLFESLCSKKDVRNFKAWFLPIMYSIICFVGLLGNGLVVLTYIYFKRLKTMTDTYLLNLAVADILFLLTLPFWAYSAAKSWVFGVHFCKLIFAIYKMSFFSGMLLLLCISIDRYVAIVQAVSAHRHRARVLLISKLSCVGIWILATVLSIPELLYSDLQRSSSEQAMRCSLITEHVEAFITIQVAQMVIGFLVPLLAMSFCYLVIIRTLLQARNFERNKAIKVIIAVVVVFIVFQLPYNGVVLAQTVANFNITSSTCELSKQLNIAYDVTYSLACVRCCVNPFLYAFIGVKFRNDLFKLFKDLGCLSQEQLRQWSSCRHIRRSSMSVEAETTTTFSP

The target of experiment [6] is T8, chemerin chemokine-like receptor 1 (Homo sapiens, UniProt Q99788).
T8 construct: gene CMKLR1
T8 sequence (Q99788 1-373): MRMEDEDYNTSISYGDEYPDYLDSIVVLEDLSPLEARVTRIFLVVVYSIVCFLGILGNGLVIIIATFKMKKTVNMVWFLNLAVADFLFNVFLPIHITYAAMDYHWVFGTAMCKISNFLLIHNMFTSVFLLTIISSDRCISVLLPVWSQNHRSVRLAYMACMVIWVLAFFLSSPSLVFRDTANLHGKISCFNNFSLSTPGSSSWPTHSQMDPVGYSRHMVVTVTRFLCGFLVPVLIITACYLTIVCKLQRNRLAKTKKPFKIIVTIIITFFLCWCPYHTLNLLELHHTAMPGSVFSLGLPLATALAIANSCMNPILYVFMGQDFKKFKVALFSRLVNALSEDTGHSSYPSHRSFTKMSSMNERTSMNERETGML

Experiment [7] addresses T9, G protein-coupled receptor 65 (Homo sapiens, UniProt Q8IYL9).
T9 construct: gene GPR65

Where [8] appears, read: read-out: % GPCR activation of 100μM Favipiravir compared to TPA.
[9] abbreviates: read-out: % GPCR activation of 10μM Sofosbuvir compared to TPA.
[10] abbreviates: read-out: % GPCR activation of 10µM Remdesivir compared to TPA.
Setting [11] is: read-out: % GPCR activation of 10μM GS441524 compared to TPA.
Where [12] appears, read: read-out: % GPCR activation of 10µM Molnupiravir compared to TPA.

T9 sequence (Q8IYL9 whole entry): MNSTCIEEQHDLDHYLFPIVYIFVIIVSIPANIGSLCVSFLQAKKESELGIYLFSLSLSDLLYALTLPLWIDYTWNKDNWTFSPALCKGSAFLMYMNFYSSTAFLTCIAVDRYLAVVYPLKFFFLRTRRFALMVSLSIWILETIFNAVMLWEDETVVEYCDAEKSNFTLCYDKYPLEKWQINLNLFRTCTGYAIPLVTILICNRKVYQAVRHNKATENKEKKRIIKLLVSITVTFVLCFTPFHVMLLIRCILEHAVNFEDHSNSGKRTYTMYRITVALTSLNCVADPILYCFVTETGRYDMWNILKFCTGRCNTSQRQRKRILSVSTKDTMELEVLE
T4 sequence (P47872 whole entry): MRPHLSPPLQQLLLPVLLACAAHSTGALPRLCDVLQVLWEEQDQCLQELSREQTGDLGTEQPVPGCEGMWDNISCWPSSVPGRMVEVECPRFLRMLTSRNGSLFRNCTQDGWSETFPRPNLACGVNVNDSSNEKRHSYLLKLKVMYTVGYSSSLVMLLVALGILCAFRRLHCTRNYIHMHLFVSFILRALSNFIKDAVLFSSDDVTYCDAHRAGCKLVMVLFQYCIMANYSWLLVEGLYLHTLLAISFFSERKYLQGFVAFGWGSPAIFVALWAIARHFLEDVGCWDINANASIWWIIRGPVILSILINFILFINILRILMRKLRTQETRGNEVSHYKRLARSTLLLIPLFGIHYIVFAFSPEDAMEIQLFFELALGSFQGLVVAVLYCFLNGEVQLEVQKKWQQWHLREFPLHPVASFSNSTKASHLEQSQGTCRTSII
T5 sequence (Q13304 whole entry, canonical isoform): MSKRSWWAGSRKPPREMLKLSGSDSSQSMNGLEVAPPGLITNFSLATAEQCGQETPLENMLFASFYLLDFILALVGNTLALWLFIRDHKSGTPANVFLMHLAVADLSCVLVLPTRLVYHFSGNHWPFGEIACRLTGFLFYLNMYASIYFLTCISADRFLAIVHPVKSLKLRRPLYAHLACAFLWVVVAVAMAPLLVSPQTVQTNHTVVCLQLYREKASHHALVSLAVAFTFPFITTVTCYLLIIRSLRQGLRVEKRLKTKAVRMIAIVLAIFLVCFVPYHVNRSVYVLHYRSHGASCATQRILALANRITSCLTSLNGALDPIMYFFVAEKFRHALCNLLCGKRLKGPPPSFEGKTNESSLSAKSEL
T6 sequence (P32249 whole entry): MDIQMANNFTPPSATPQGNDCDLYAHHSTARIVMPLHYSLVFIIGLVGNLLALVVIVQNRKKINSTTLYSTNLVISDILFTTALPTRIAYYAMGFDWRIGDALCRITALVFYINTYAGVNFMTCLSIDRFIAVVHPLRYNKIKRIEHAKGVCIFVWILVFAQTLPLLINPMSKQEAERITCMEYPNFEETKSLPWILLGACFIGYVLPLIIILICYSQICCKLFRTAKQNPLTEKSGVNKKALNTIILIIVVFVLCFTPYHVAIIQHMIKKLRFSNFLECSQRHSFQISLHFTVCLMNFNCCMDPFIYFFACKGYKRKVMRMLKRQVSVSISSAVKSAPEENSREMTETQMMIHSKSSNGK
T2 sequence (Q99677 whole entry): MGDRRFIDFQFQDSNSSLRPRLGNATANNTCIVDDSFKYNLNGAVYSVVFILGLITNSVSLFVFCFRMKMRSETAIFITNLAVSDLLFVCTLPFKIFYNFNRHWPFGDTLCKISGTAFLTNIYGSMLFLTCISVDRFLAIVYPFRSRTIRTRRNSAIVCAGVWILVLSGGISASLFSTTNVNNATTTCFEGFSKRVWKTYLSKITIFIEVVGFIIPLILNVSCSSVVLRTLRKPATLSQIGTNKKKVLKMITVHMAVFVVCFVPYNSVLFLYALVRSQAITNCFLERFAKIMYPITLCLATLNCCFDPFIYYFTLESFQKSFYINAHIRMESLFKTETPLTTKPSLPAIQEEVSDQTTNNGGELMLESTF

Consider `NC(=O)c1nc(F)cnc1O` [favipiravir, 6-fluoro-3-hydroxy-2-pyrazinecarboxamide], for which the activity at 100 µM at GPR132 (setting [8]) was 7.4%; in experiment [1] (setting [8]) it was -0.546%; in experiment [2] (setting [8]), 0.0634%; at secretin receptor (setting [8]), -0.513%; in experiment [3] (setting [8]) it was -0.501%; in experiment [4] (setting [8]), -1.16%. Also, the activity at 100 µM in experiment [5] (setting [8]) was -0.335%; in experiment [6] (setting [8]), 2.98%; in [7] (setting [8]), 1.28%.

As for `CC(C)OC(=O)[C@H](C)N[P@](=O)(OC[C@H]1O[C@@H](n2ccc(=O)[nH]c2=O)[C@](C)(F)[C@@H]1O)Oc1ccccc1` [sofosbuvir], the activity at 10 µM was -1.37% on GPR132 (setting [9]); 3.13% in [1] (setting [9]); 0.247% in [2] (setting [9]); 0.153% at secretin receptor (setting [9]); 1.81% in experiment [3] (setting [9]); -0.758% in [4] (setting [9]). In addition, the activity at 10 µM in [5] (setting [9]) is -0.917%; in [6] (setting [9]), -0.939%; in experiment [7] (setting [9]) it was -10.5%.

Consider `CCC(CC)COC(=O)[C@H](C)N[P@](=O)(OC[C@H]1O[C@@](C#N)(c2ccc3c(N)ncnn23)[C@H](O)[C@@H]1O)Oc1ccccc1` [remdesivir], for which the activity at 10 µM on GPR132 (setting [10]) is 11%; in experiment [1] (setting [10]), -0.0834%; in [2] (setting [10]), 2.08%; on secretin receptor (setting [10]), -0.951%; in [3] (setting [10]), 2.96%; in experiment [4] (setting [10]) it was 0.482%. Besides, the activity at 10 µM in [6] (setting [10]) was -1.38%; in experiment [7] (setting [10]), -1.39%.

For the molecule `N#C[C@@]1(c2ccc3c(N)ncnn23)O[C@H](CO)[C@@H](O)[C@H]1O` [GS441524], the activity at 10 µM at GPR132 (setting [11]) was -8.13%; in experiment [1] (setting [11]) it was 1.19%; in experiment [2] (setting [11]), -0.521%; at secretin receptor (setting [11]) it was 0.894%; in [3] (setting [11]), 2.36%; in experiment [4] (setting [11]), -1.47%. The figures for the activity at 10 µM in experiment [5] (setting [11]), in [6] (setting [11]) and in experiment [7] (setting [11]) were -0.998%, -4.93% and -3.08%, respectively.

As to `CC(C)C(=O)OC[C@H]1O[C@@H](n2ccc(NO)nc2=O)[C@H](O)[C@@H]1O` [molnupiravir], the activity at 10 µM on GPR132 (setting [12]) was -1.8%; in [1] (setting [12]), -0.213%; in experiment [2] (setting [12]) it was -0.579%; at secretin receptor (setting [12]), -0.0837%; in experiment [3] (setting [12]), 0.174%; in [4] (setting [12]), -0.842%. Also, the activity at 10 µM in experiment [5] (setting [12]) is 0.546%; in [6] (setting [12]), -0.313%; in experiment [7] (setting [12]), -8.38%.
